# Assay results published in PubChem BioAssay (NCI).
#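 Protocol summary: plate cells (96-well), add compound at 5 concentrations, incubate 48 h, interpolate endpoints linearly. GI50 marks 50% less growth. TGI: concentration producing complete growth inhibition.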
# Experiments:
# Assay in all cases: DTP human tumour cell line panel, 48 h
# A498 renal = test system: A498 renal
# SN12C renal = test system: SN12C renal
# HOP-92 NSCLC = test system: HOP-92 NSCLC
# UO-31 renal = test system: UO-31 renal
# SF-295 CNS = test system: SF-295 CNS
# SK-MEL-28 melanoma = test system: SK-MEL-28 melanoma
# HCT-116 colon = test system: HCT-116 colon
# SNB-19 CNS = test system: SNB-19 CNS
# SK-MEL-5 melanoma = test system: SK-MEL-5 melanoma
# MDA-MB-231 breast = test system: MDA-MB-231 breast
# SF-539 CNS = test system: SF-539 CNS
# PC-3 prostate = test system: PC-3 prostate
# SK-MEL-2 melanoma = test system: SK-MEL-2 melanoma
# IGROV1 ovarian = test system: IGROV1 ovarian
# NCI-H23 lung = test system: NCI-H23 lung
# OVCAR-8 ovarian = test system: OVCAR-8 ovarian
# SR leukemia = test system: SR leukemia
# DU-145 prostate = test system: DU-145 prostate
# NCI-H226 lung = test system: NCI-H226 lung
# BT-549 breast = test system: BT-549 breast
# HCT-15 colon = test system: HCT-15 colon
# OVCAR-3 ovarian = test system: OVCAR-3 ovarian
# COLO 205 colon = test system: COLO 205 colon
# KM12 colon = test system: KM12 colon
# SK-OV-3 ovarian = test system: SK-OV-3 ovarian
# RPMI-8226 leukemia = test system: RPMI-8226 leukemia
# NCI/ADR-RES ovarian = test system: NCI/ADR-RES ovarian
# ACHN renal = test system: ACHN renal
# MOLT-4 leukemia = test system: MOLT-4 leukemia
# K-562 leukemia = test system: K-562 leukemia
# HT29 colon = test system: HT29 colon
# MDA-MB-435 = test system: MDA-MB-435
# HL-60(TB) leukemia = test system: HL-60(TB) leukemia
# NCI-H522 lung = test system: NCI-H522 lung
# SNB-75 CNS = test system: SNB-75 CNS
# MCF7 breast = test system: MCF7 breast
# SF-268 CNS = test system: SF-268 CNS
# A549 NSCLC = test system: A549 NSCLC
# 786-0 renal = test system: 786-0 renal
# M14 melanoma = test system: M14 melanoma
# T-47D breast = test system: T-47D breast
# OVCAR-4 ovarian = test system: OVCAR-4 ovarian
# HOP-62 NSCLC = test system: HOP-62 NSCLC
# CCRF-CEM leukemia = test system: CCRF-CEM leukemia
# LOX IMVI melanoma = test system: LOX IMVI melanoma
# EKVX NSCLC = test system: EKVX NSCLC
# HS 578T breast = test system: HS 578T breast
# RXF 393 renal = test system: RXF 393 renal
# UACC-257 melanoma = test system: UACC-257 melanoma
# NCI-H460 lung = test system: NCI-H460 lung
# TK-10 renal = test system: TK-10 renal
# UACC-62 melanoma = test system: UACC-62 melanoma
# MALME-3M melanoma = test system: MALME-3M melanoma
# HCC-2998 colon = test system: HCC-2998 colon
# OVCAR-5 ovarian = test system: OVCAR-5 ovarian
# U251 CNS = test system: U251 CNS
# SW-620 colon = test system: SW-620 colon
compound,measurement,setting,value
Nc1ncccc1-c1nc2ccc(-c3ccccc3)nc2n1-c1ccc(C2(N)CCC2)cc1,GI50,A498 renal,0.0791 µM
same,TGI,A498 renal,0.654 µM
same,GI50,SN12C renal,2.29 µM
same,TGI,SN12C renal,13.5 µM
same,GI50,HOP-92 NSCLC,0.0644 µM
same,TGI,HOP-92 NSCLC,1.2 µM
same,GI50,UO-31 renal,0.278 µM
same,TGI,UO-31 renal,2.03 µM
same,GI50,SF-295 CNS,0.256 µM
same,TGI,SF-295 CNS,2.3 µM
same,GI50,SK-MEL-28 melanoma,1.2 µM
same,TGI,SK-MEL-28 melanoma,2.66 µM
same,GI50,HCT-116 colon,1.43 µM
same,TGI,HCT-116 colon,2.91 µM
same,GI50,SNB-19 CNS,1.5 µM
same,TGI,SNB-19 CNS,3.67 µM
same,GI50,SK-MEL-5 melanoma,1.36 µM
same,TGI,SK-MEL-5 melanoma,2.67 µM
same,GI50,MDA-MB-231 breast,1.46 µM
same,TGI,MDA-MB-231 breast,3.39 µM
same,GI50,SF-539 CNS,0.978 µM
same,TGI,SF-539 CNS,2.52 µM
same,GI50,PC-3 prostate,0.0533 µM
same,TGI,PC-3 prostate,3.39 µM
same,GI50,SK-MEL-2 melanoma,1.65 µM
same,TGI,SK-MEL-2 melanoma,3.54 µM
same,GI50,IGROV1 ovarian,0.0342 µM
same,TGI,IGROV1 ovarian,0.863 µM
same,GI50,NCI-H23 lung,5.19 µM
same,TGI,NCI-H23 lung,21.5 µM
same,GI50,OVCAR-8 ovarian,2.06 µM
same,TGI,OVCAR-8 ovarian,6.24 µM
same,GI50,SR leukemia,1.74 µM
same,TGI,SR leukemia,4.75 µM
same,GI50,DU-145 prostate,2.98 µM
same,TGI,DU-145 prostate,15 µM
same,GI50,NCI-H226 lung,5.02 µM
same,TGI,NCI-H226 lung,23.7 µM
same,GI50,BT-549 breast,0.344 µM
same,TGI,BT-549 breast,5.14 µM
same,GI50,HCT-15 colon,1.34 µM
same,TGI,HCT-15 colon,4.27 µM
same,GI50,OVCAR-3 ovarian,0.353 µM
same,TGI,OVCAR-3 ovarian,10.6 µM
same,GI50,COLO 205 colon,0.422 µM
same,TGI,COLO 205 colon,2.14 µM
same,GI50,KM12 colon,1.78 µM
same,TGI,KM12 colon,6.93 µM
same,GI50,SK-OV-3 ovarian,0.166 µM
same,TGI,SK-OV-3 ovarian,3.01 µM
same,GI50,RPMI-8226 leukemia,1.74 µM
same,TGI,RPMI-8226 leukemia,4.78 µM
same,GI50,NCI/ADR-RES ovarian,2.43 µM
same,TGI,NCI/ADR-RES ovarian,14.6 µM
same,GI50,ACHN renal,1.14 µM
same,TGI,ACHN renal,3.19 µM
same,GI50,MOLT-4 leukemia,0.188 µM
same,TGI,MOLT-4 leukemia,7.88 µM
same,GI50,K-562 leukemia,1.89 µM
same,TGI,K-562 leukemia,4.5 µM
same,GI50,HT29 colon,0.435 µM
same,TGI,HT29 colon,3.37 µM
same,GI50,MDA-MB-435,1.35 µM
same,TGI,MDA-MB-435,2.88 µM
same,GI50,HL-60(TB) leukemia,1.83 µM
same,TGI,HL-60(TB) leukemia,3.92 µM
same,GI50,NCI-H522 lung,1.53 µM
same,TGI,NCI-H522 lung,3.47 µM
same,GI50,SNB-75 CNS,0.0859 µM
same,TGI,SNB-75 CNS,1.7 µM
same,GI50,MCF7 breast,0.0465 µM
same,TGI,MCF7 breast,1.68 µM
same,GI50,SF-268 CNS,2.05 µM
same,TGI,SF-268 CNS,12.4 µM
same,GI50,A549 NSCLC,1.69 µM
same,TGI,A549 NSCLC,6.81 µM
same,GI50,786-0 renal,0.212 µM
same,TGI,786-0 renal,1.6 µM
same,GI50,M14 melanoma,1.4 µM
same,TGI,M14 melanoma,2.96 µM
same,GI50,T-47D breast,< 0.0118 µM
same,TGI,T-47D breast,0.158 µM
same,GI50,OVCAR-4 ovarian,4.06 µM
same,TGI,OVCAR-4 ovarian,18.7 µM
same,GI50,HOP-62 NSCLC,1.9 µM
same,TGI,HOP-62 NSCLC,8.48 µM
same,GI50,CCRF-CEM leukemia,0.437 µM
same,TGI,CCRF-CEM leukemia,9.86 µM
same,GI50,LOX IMVI melanoma,1.37 µM
same,TGI,LOX IMVI melanoma,2.77 µM
same,GI50,EKVX NSCLC,1.92 µM
same,TGI,EKVX NSCLC,16.2 µM
same,GI50,HS 578T breast,0.253 µM
same,TGI,HS 578T breast,2.31 µM
same,GI50,RXF 393 renal,0.214 µM
same,TGI,RXF 393 renal,1.63 µM
same,GI50,UACC-257 melanoma,1.28 µM
same,TGI,UACC-257 melanoma,2.73 µM
same,GI50,NCI-H460 lung,0.333 µM
same,TGI,NCI-H460 lung,2.99 µM
same,GI50,TK-10 renal,0.719 µM
same,TGI,TK-10 renal,8.01 µM
same,GI50,UACC-62 melanoma,1.37 µM
same,TGI,UACC-62 melanoma,2.99 µM
same,GI50,MALME-3M melanoma,0.197 µM
same,TGI,MALME-3M melanoma,1.84 µM
same,GI50,HCC-2998 colon,1.19 µM
same,TGI,HCC-2998 colon,2.77 µM
same,GI50,OVCAR-5 ovarian,1.53 µM
same,TGI,OVCAR-5 ovarian,8.23 µM
same,GI50,U251 CNS,0.746 µM
same,TGI,U251 CNS,2.31 µM
same,GI50,SW-620 colon,1.53 µM
same,TGI,SW-620 colon,3.35 µM
